# In US9486440B2, “Uses of indole-ketones or indolidones as neuro-protective drugs” (UNIVERSITY OF MACAU, priority 2011, dated 2016):
# Entries after “also recorded” stand apart in the source; their conditions may differ. Where two headings read alike, the source gives them in different places.
# Tests used:
# [1] = tested on: CGNs; experiment: Hoechst 33342 staining of CGNs after MPP+; assay type: cell-based, rat; conditions: 20 μM, 35 μM MPP+
# Description: Chromatin condensation was detected by nucleus staining with Hoechst 33342 as described by Li et al., 2005. CGNs (2.7×10^6 cells) grown in a 35-mm dish were washed with ice-cold phosphate-buffered saline (PBS) and fixed with 4% formaldehyde in PBS. The cells were then stained with Hoechst 33342 (5 μg/ml) for 5 min at 4° C. The nuclei were visualized using a fluorescence microscope at ×400 magnification.
# Chromatin condensation was detected by staining the cell nucleus with Hoechst 33342 as described by Li et al., 2005. CGNs (2.7×10^6 cells) grown in a 35-mm dish were washed with ice-cold phosphate-buffered saline (PBS), fixed with 4% formaldehyde in PBS, membrane-permeabilized in 0.1% Triton X-100 and blocked in 1% BSA. Cells were then exposed to a primary nNOS antibody (Santa Cruz) overnight at 4° C. followed by incubation at room temperature with an Alexa Fluor 488-conjugated secondary antibody. After immunostaining, cells were then stained with Hoechst 33342 (5 μg/ml) at 4° C. for 5 min. Images were acquired using a fluorescence microscope at ×100 magnification.
# To quantify the percentage of apoptotic nuclei in each group, photos of each dish (n=3 dishes in each group for three independent experiments) were taken at five random fields and the numbers of apoptotic nuclei and total nuclei (n=300) were counted, and the percentage of apoptotic nuclei was averaged.
# [2] = target: nNOS (Homo sapiens, UniProt P29475); experiment: In vitro NOS activity assay, nNOS; assay type: biochemical; set-up: purchased Alexis Biochemicals (Lausen, Switzerland); conditions: for inhibition of recombinant human nNOS: PTK787/ZK222584 up to 1 mM
# Description: (§1) In the in vitro NOS activity assay (Li et al., 2007), purified recombinant human nNOS, endothelial NOS (eNOS), and inducible NOS (iNOS) were bought from Alexis Biochemicals (Lausen, Switzerland). NOS activity was determined by monitoring the conversion of L-[3H]arginine to [3H]citrulline following the instructions provided in the kit (Calbiochem, USA). The reaction mixture contained a final volume of 40 μl with 25 mM Tris-Cl at pH 7.4, 3 μM tetrahydrobiopterin, 1 μM FAD, 1 μM FMN, 1 mM NADPH, 0.6 mM CaCl2, 0.1 μM calmodulin, 2.5 μg of pure NOS enzyme, 5 μl L-[3H]arginine (Perkin Elmer, Waltham, Mass., USA), and different concentrations of the tested reagents. The reaction mixture was incubated at 22° C. for 45 min. The reaction was quenched by adding 400 μl of stopping buffer (50 mM HEPES, pH 5.5, and 5 mM EDTA) for nNOS and eNOS reactions or by heating reactive tubes for iNOS. Unreacted L-[3H]arginine was then trapped by 100 μl of equilibrated resin provided in a spin cup followed by centrifugation for 30 s at 13,200 rpm. The filtrate was quantified by liquid scintillation counting.
# [3] = tested on: intracellular NO; experiment: Intracellular NO in CGNs after MPP+ (DAF-FM diacetate); assay type: cell-based, rat; conditions: 35 μM MPP+
# Description: (§2) Intracellular NO was monitored with 4-Amino-5-methylamino-2′,7′-difluorofluorescein (DAF-FM) diacetate, a pH-insensitive fluorescent dye that emits increased fluorescence after reaction with an active intermediate of NO formed during the spontaneous oxidation of NO to NO2 (Sheng et al., 2005). DAF-FM solution was added to the culture medium (final concentration: 5 μM). After 30 min in a CO2 incubator, cultures were washed twice with PBS and incubated for an additional 30 min to allow complete de-esterification of the intracellular diacetate for stronger fluorescence. The DAF-FM fluorescence in CGNs was quantified by a multi-detection microplate reader using excitation and emission wavelengths of 495 nm and 515 nm, respectively. The measured fluorescence values were expressed as a percentage of the fluorescence in the control cells.
# as §2, with “(4-amino-5-methylamino-2′,7′-difluorofluorescein) DAF-FM” for “4-Amino-5-methylamino-2′,7′-difluorofluorescein (DAF-FM)”, “After incubation for” for “After”, “another” for “an additional”, “strong” for “stronger”
# [4] = target: T1, recombinant human endothelial NOS (eNOS) (Homo sapiens, UniProt P29474); experiment: In vitro NOS activity assay, eNOS; assay type: biochemical; conditions: PTK787/ZK222584 up to 1 mM
# T1 construct: purchased Alexis Biochemicals (Lausen, Switzerland)
# Description: as §1
# [5] = tested on: retinal photoreceptors or ganglion cells; conditions: 3 mg of SU4312 every 5 days for 12 weeks; cited from earlier work
# [6] = tested on: CGNs; experiment: FDA/PI double staining of CGNs after MPP+; assay type: cell-based, rat; conditions: 20 μM, 35 μM MPP+
# Description: Viable granule neurons were stained with fluorescein formed from fluorescein diacetate (FDA), which is de-esterified only by living cells. Propidium iodide (PI) can penetrate cell membranes of dead cells to intercalate into double-stranded nucleic acids. Briefly, after incubation with 10 μg/ml FDA and 5 μg/ml PI for 15 min, the neurons were examined and photographed using UV light microscopy; and the pictures were compared with those photographed under phase contrast microscopy.
# Viable granule neurons were stained with fluorescein formed from fluorescein diacetate (FDA) by esterase in viable cells. Propidium iodide (PI) can penetrate cell membranes of dead cells to intercalate into double-stranded nucleic acids. Briefly, after incubation with 10 μg/ml of FDA and 5 μg/ml of PI for 15 min, the neurons were examined and images were acquired using UV light microscopy for comparison with photos taken under phase contrast microscopy.
# [7] = tested on: nNOS protein expression; experiment: Western blot of nNOS protein in CGNs after MPP+; assay type: cell-based, rat; conditions: 20 μM, 35 μM MPP+
# Description: (§3) Briefly, neurons were harvested in a cell lysis buffer. Protein was separated on SDS-polyacrylamide gel and transferred onto polyvinyldifluoride membranes. After membrane blocking, proteins were detected using primary antibodies. After incubation at 4° C. overnight, signals were obtained after binding to chemiluminescent secondary antibodies. Blots were developed using an ECL plus kit (Amersham Bioscience, Aylesbury, UK) and exposed to Kodak autoradiographic films. All data were from three independent experiments and were expressed as the ratio to optical density (OD) values of the corresponding controls for statistical analyses.
# [8] = tested on: iNOS protein expression; experiment: Western blot of iNOS protein in CGNs after MPP+; assay type: cell-based, rat; conditions: 20 μM, 35 μM MPP+
# Description: as §3
# [9] = tested on: VEGFR-2; conditions: cited from earlier work
Structure (SMILES),nuclear condensation / apoptotic nuclei (Hoechst 33342) [1],"Ki ([2]; 10 and 20 μM SU4312, 5 to 40 μM L-[3H]arginine, Lineweaver-Burk, read-out: Ki value of nNOS inhibition)",mode of nNOS inhibition ([2]; Lineweaver-Burk plots),inhibition of recombinant human nNOS [2],"MPP+-induced elevation of intracellular NO level ([3]; pre-treatment 2 hours, 24 hours, SU4312 3-30 μM, 7-NI 3-10 μM)",inhibition of recombinant human eNOS [4],damage to retinal photoreceptors or ganglion cells [5],"loss of neurons and morphological alterations (FDA/PI, phase contrast) [6]",MPP+-stimulated NO production ([3]; measured at 8 hour),MPP+-increased expression of nNOS protein [7],MPP+-elevated expression of iNOS protein [8],IC50 [9],IC50 ([9]; listed as PTK787)
"CN(C)c1ccc(C=C2C(=O)Nc3ccccc32)cc1 [SU4312, 3-[4-(dimethylamino)benzylidenyl]indolin-2-one]",significantly reversed nuclear condensation induced by MPP^+,12.7 µM,inhibited nNOS in a non-competitive manner; also recorded: did not alter Km but increased the appeared 1/Vmax,directly and selectively inhibit recombinant human nNOS relative to iNOS,attenuated MPP^+-triggered elevation of intracellular NO level,no activity against eNOS,did not damage retinal photoreceptors or ganglion cells,significantly blocked MPP^+-induced loss of neurons and reversed MPP^+-induced morphological alterations,–,–,–,–,–
"Cc1cc(C)c(/C=C2\C(=O)Nc3ccccc32)[nH]1 [SU5416, (3Z)-3-[(3,5-dimethyl-1H-pyrrol-2-yl)methylidene]-1,3-dihydro-2H-indol-2-one]",significantly reversed neuronal apoptosis induced by MPP^+,–,–,–,–,–,–,significantly blocked the loss of neurons and reversed the morphological alteration,antagonized the stimulatory effect of MPP^+ on the NO production with an efficacy similar to 7-nitroindazole (15 μM),reversed the increased expression of nNOS by MPP^+,could not affect the elevated expression of iNOS by MPP^+,–,–
Clc1ccc(Nc2nnc(Cc3ccncc3)c3ccccc23)cc1 [PTK787/ZK222584],–,–,–,did not inhibit any of the isoforms even at 1 mM,–,did not inhibit any of the isoforms even at 1 mM,–,–,–,–,–,[…],[…]
